# Measurements taken from patent publication US20260022142A1, “MACROCYCLIC IMMUNOMODULATORS” (Bristol-Myers Squibb Company, priority 2022, published 2026).
# Bridge positions count the residues as written; N and C are the ends. Square brackets hold non-standard residues; d marks the D form. Peptide text beside a SMILES is read from it. * marks the point of attachment. Bip = N[C@@H](Cc1ccc(-c2ccccc2)cc1)C(=O)O; Phe(3-Me) = Cc1cccc(C[C@H](N)C(=O)O)c1; Cha = N[C@@H](CC1CCCCC1)C(=O)O; Cit = NC(=O)NCCC[C@H](N)C(=O)O; Carboxymethyl = O=C(O)C*; Orn = NCCC[C@H](N)C(=O)O; Aun = NCCCCCCCCCCC(=O)O; Dab = NCC[C@H](N)C(=O)O; Dap = NC[C@H](N)C(=O)O
# Molecular target: T1, PD-1/PD-L1 interaction (PE-labeled human PD-L1-Ig binding to Jurkat cell line over-expressing human PD-1) (Homo sapiens, UniProt Q15116)
# T1 construct: expressed in transfected cells; host or cells: Jurkat
# Assay: Jurkat-PD-1 Cell Binding High-Content Screening Assay (CBA)
# Format: cell-based
# Settings: Jurkat cell line over-expressing human PD-1; PE-labeled PD-L1-Ig 20 nM final; read-out: Jurkat hPD1-PDL1 IC50
# Summary of the method: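 Human PD-L1-Ig carrying a covalent PE label on its Ig tag serves as the probe, applied at 20 nM final to compound-treated (2 h, 37° C) Jurkat-hPD-1 cells in medium with 10% fetal calf serum. After one hour, fixation and nuclear staining precede high-content image analysis.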
# T1 sequence (Q15116 25-288): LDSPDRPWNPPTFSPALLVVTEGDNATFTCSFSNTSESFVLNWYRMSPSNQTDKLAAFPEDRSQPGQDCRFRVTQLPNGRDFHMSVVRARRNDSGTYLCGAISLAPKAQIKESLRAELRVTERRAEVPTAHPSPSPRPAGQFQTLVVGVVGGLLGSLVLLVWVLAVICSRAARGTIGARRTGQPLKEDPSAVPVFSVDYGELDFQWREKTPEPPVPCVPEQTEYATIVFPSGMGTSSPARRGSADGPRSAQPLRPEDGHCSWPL
row,IC50 [nM],Compound
1,89.8,Cc1cccc(C[C@@H]2NC(=O)[C@H](CC(=O)O)NC(=O)[C@H](Cc3ccc(OCC(=O)O)cc3)NC(=O)[C@H](Cc3ccc(OCC(=O)O)cc3)NC(=O)CSC[C@@H](C(=O)N[C@@H](CCN)C(=O)NCCCCCCCCCCC(=O)O)NC(=O)[C@H](CO)NC(=O)[C@H](C(C)C)NC(=O)[C@H](CC3CCCCC3)NC(=O)[C@H](CCN)NC(=O)[C@@H](CC(C)C)NC(=O)[C@H](CCCN)NC(=O)[C@H](C(C)C)NC(=O)[C@H](Cc3ccc(-c4ccccc4)cc3)NC(=O)[C@H](CC(C)C)NC2=O)c1 [Compound 1060] ({CH2CO}-Y(Carboxymethyl)Y(Carboxymethyl)D[Phe(3-Me)]L[Bip]V[Orn][dL][Dab][Cha]VSC[Dab][Aun]-OH; thioether N-14)
2,56.2,Cc1cccc(C[C@@H]2NC(=O)[C@H](CC(=O)O)NC(=O)[C@H](Cc3ccc(OCC(=O)O)cc3)NC(=O)[C@H](Cc3ccc(OCC(=O)O)cc3)NC(=O)CSC[C@@H](C(=O)N[C@@H](CN)C(=O)NCCCCCCCCCCC(=O)O)NC(=O)[C@H](CO)NC(=O)[C@H](C(C)C)NC(=O)[C@H](CC3CCCCC3)NC(=O)[C@H](CCN)NC(=O)[C@@H](CC(C)C)NC(=O)[C@H](CCCN)NC(=O)[C@H](C(C)C)NC(=O)[C@H](Cc3ccc(-c4ccccc4)cc3)NC(=O)[C@H](CC(C)C)NC2=O)c1 [Compound 1061] ({CH2CO}-Y(Carboxymethyl)Y(Carboxymethyl)D[Phe(3-Me)]L[Bip]V[Orn][dL][Dab][Cha]VSC[Dap][Aun]-OH; thioether N-14)
3,16.3,Cc1cccc(C[C@@H]2NC(=O)[C@H](CC(=O)O)NC(=O)[C@H](Cc3ccc(OCC(=O)O)cc3)NC(=O)[C@H](CN)NC(=O)CSC[C@@H](C(=O)N[C@@H](CCN)C(=O)NCCCCCCCCCCC(=O)O)NC(=O)[C@H]([C@@H](C)O)NC(=O)[C@H](C(C)C)NC(=O)[C@H](CC3CCCCC3)NC(=O)[C@H](CCN)NC(=O)[C@@H](CC(C)C)NC(=O)[C@H](CCCN)NC(=O)[C@H](CCCNC(N)=O)NC(=O)[C@H](Cc3ccc(-c4ccccc4)cc3)NC(=O)[C@H](C(C)C)NC2=O)c1 [Compound 1064] ({CH2CO}-[Dap]Y(Carboxymethyl)D[Phe(3-Me)]V[Bip][Cit][Orn][dL][Dab][Cha]VTC[Dab][Aun]-OH; thioether N-14)
4,13.5,Cc1cccc(C[C@@H]2NC(=O)[C@H](CC(=O)O)NC(=O)[C@H](Cc3ccc(OCC(=O)O)cc3)NC(=O)[C@H](CN)NC(=O)CSC[C@@H](C(=O)N[C@@H](CN)C(=O)NCCCCCCCCCCC(=O)O)NC(=O)[C@H]([C@@H](C)O)NC(=O)[C@H](C(C)C)NC(=O)[C@H](CC3CCCCC3)NC(=O)[C@H](CCN)NC(=O)[C@@H](CC(C)C)NC(=O)[C@H](CCCN)NC(=O)[C@H](CCCNC(N)=O)NC(=O)[C@H](Cc3ccc(-c4ccccc4)cc3)NC(=O)[C@H](C(C)C)NC2=O)c1 [Compound 1065] ({CH2CO}-[Dap]Y(Carboxymethyl)D[Phe(3-Me)]V[Bip][Cit][Orn][dL][Dab][Cha]VTC[Dap][Aun]-OH; thioether N-14)
5,13.9,Cc1cccc(C[C@@H]2NC(=O)[C@H](CC(=O)O)NC(=O)[C@H](Cc3ccc(OCC(=O)O)cc3)NC(=O)[C@H](CN)NC(=O)CSC[C@@H](C(=O)N[C@@H](C)C(=O)N[C@@H](CCCCN)C(=O)NCC(=O)NCCCCCCCCCCC(=O)O)NC(=O)[C@H]([C@@H](C)O)NC(=O)[C@H](C(C)C)NC(=O)[C@H](CC3CCCCC3)NC(=O)[C@H](CCN)NC(=O)[C@@H](CC(C)C)NC(=O)[C@H](CCCN)NC(=O)[C@H](CCCNC(N)=O)NC(=O)[C@H](Cc3ccc(-c4ccccc4)cc3)NC(=O)[C@H](C(C)C)NC2=O)c1 [Compound 1066] ({CH2CO}-[Dap]Y(Carboxymethyl)D[Phe(3-Me)]V[Bip][Cit][Orn][dL][Dab][Cha]VTCAKG[Aun]-OH; thioether N-14)
6,28.5,Cc1cccc(C[C@@H]2NC(=O)[C@H](CC(=O)O)NC(=O)[C@H](Cc3ccc(OCC(=O)O)cc3)NC(=O)[C@H](Cc3ccc(OCC(=O)O)cc3)NC(=O)CSC[C@@H](C(=O)NCC(=O)N[C@@H](CCCN)C(=O)NCC(=O)NCCCCCCCCCCC(=O)O)NC(=O)[C@H](CO)NC(=O)[C@H](C(C)C)NC(=O)[C@H](CC3CCCCC3)NC(=O)[C@H](CCN)NC(=O)[C@@H](CC(C)C)NC(=O)[C@H](CCCN)NC(=O)[C@H](C(C)C)NC(=O)[C@H](Cc3ccc(-c4ccccc4)cc3)NC(=O)[C@H](CC(C)C)NC2=O)c1 [Compound 1067] ({CH2CO}-Y(Carboxymethyl)Y(Carboxymethyl)D[Phe(3-Me)]L[Bip]V[Orn][dL][Dab][Cha]VSCG[Orn]G[Aun]-OH; thioether N-14)
7,10.4,Cc1cccc(C[C@@H]2NC(=O)[C@H](CC(=O)O)NC(=O)[C@H](Cc3ccc(OCC(=O)O)cc3)NC(=O)[C@H](CN)NC(=O)CSC[C@@H](C(=O)N[C@@H](C)C(=O)N[C@@H](CCCN)C(=O)NCC(=O)NCCCCCCCCCCC(=O)O)NC(=O)[C@H]([C@@H](C)O)NC(=O)[C@H](C(C)C)NC(=O)[C@H](CC3CCCCC3)NC(=O)[C@H](CCN)NC(=O)[C@@H](CC(C)C)NC(=O)[C@H](CCCN)NC(=O)[C@H](CCCNC(N)=O)NC(=O)[C@H](Cc3ccc(-c4ccccc4)cc3)NC(=O)[C@H](C(C)C)NC2=O)c1 [Compound 1068] ({CH2CO}-[Dap]Y(Carboxymethyl)D[Phe(3-Me)]V[Bip][Cit][Orn][dL][Dab][Cha]VTCA[Orn]G[Aun]-OH; thioether N-14)
8,41.7,Cc1cccc(C[C@@H]2NC(=O)[C@H](CC(=O)O)NC(=O)[C@H](Cc3ccc(OCC(=O)O)cc3)NC(=O)[C@H](Cc3ccc(OCC(=O)O)cc3)NC(=O)CSC[C@@H](C(=O)NCC(=O)N[C@@H](CCCCN)C(=O)NCCCCCCCCCCC(=O)O)NC(=O)[C@H](CO)NC(=O)[C@H](C(C)C)NC(=O)[C@H](CC3CCCCC3)NC(=O)[C@H](CCN)NC(=O)[C@@H](CC(C)C)NC(=O)[C@H](CCCN)NC(=O)[C@H](C(C)C)NC(=O)[C@H](Cc3ccc(-c4ccccc4)cc3)NC(=O)[C@H](CC(C)C)NC2=O)c1 [Compound 1069] ({CH2CO}-Y(Carboxymethyl)Y(Carboxymethyl)D[Phe(3-Me)]L[Bip]V[Orn][dL][Dab][Cha]VSCGK[Aun]-OH; thioether N-14)
9,10.4,Cc1cccc(C[C@@H]2NC(=O)[C@H](CC(=O)O)NC(=O)[C@H](Cc3ccc(OCC(=O)O)cc3)NC(=O)[C@H](CN)NC(=O)CSC[C@@H](C(=O)N[C@@H](C)C(=O)N[C@@H](CCCCN)C(=O)NCCCCCCCCCCC(=O)O)NC(=O)[C@H]([C@@H](C)O)NC(=O)[C@H](C(C)C)NC(=O)[C@H](CC3CCCCC3)NC(=O)[C@H](CCN)NC(=O)[C@@H](CC(C)C)NC(=O)[C@H](CCCN)NC(=O)[C@H](CCCNC(N)=O)NC(=O)[C@H](Cc3ccc(-c4ccccc4)cc3)NC(=O)[C@H](C(C)C)NC2=O)c1 [Compound 1070] ({CH2CO}-[Dap]Y(Carboxymethyl)D[Phe(3-Me)]V[Bip][Cit][Orn][dL][Dab][Cha]VTCAK[Aun]-OH; thioether N-14)
10,42.5,Cc1cccc(C[C@@H]2NC(=O)[C@H](CC(=O)O)NC(=O)[C@H](Cc3ccc(OCC(=O)O)cc3)NC(=O)[C@H](Cc3ccc(OCC(=O)O)cc3)NC(=O)CSC[C@@H](C(=O)NCC(=O)N[C@@H](CCCN)C(=O)NCCCCCCCCCCC(=O)O)NC(=O)[C@H](CO)NC(=O)[C@H](C(C)C)NC(=O)[C@H](CC3CCCCC3)NC(=O)[C@H](CCN)NC(=O)[C@@H](CC(C)C)NC(=O)[C@H](CCCN)NC(=O)[C@H](C(C)C)NC(=O)[C@H](Cc3ccc(-c4ccccc4)cc3)NC(=O)[C@H](CC(C)C)NC2=O)c1 [Compound 1071] ({CH2CO}-Y(Carboxymethyl)Y(Carboxymethyl)D[Phe(3-Me)]L[Bip]V[Orn][dL][Dab][Cha]VSCG[Orn][Aun]-OH; thioether N-14)
11,14.2,Cc1cccc(C[C@@H]2NC(=O)[C@H](CC(=O)O)NC(=O)[C@H](Cc3ccc(OCC(=O)O)cc3)NC(=O)[C@H](CN)NC(=O)CSC[C@@H](C(=O)N[C@@H](C)C(=O)N[C@@H](CCCN)C(=O)NCCCCCCCCCCC(=O)O)NC(=O)[C@H]([C@@H](C)O)NC(=O)[C@H](C(C)C)NC(=O)[C@H](CC3CCCCC3)NC(=O)[C@H](CCN)NC(=O)[C@@H](CC(C)C)NC(=O)[C@H](CCCN)NC(=O)[C@H](CCCNC(N)=O)NC(=O)[C@H](Cc3ccc(-c4ccccc4)cc3)NC(=O)[C@H](C(C)C)NC2=O)c1 [Compound 1072] ({CH2CO}-[Dap]Y(Carboxymethyl)D[Phe(3-Me)]V[Bip][Cit][Orn][dL][Dab][Cha]VTCA[Orn][Aun]-OH; thioether N-14)
12,15.2,Cc1cccc(C[C@@H]2NC(=O)[C@H](CC(=O)O)NC(=O)[C@H](Cc3ccc(OCC(=O)O)cc3)NC(=O)[C@H](Cc3ccc(OCC(=O)O)cc3)NC(=O)CSC[C@@H](C(=O)NCC(=O)N[C@@H](CCCCN)C(=O)NCC(=O)NCCCCCCCCCCC(=O)O)NC(=O)[C@H](CO)NC(=O)[C@H](C(C)C)NC(=O)[C@H](CC3CCCCC3)NC(=O)[C@H](CCN)NC(=O)[C@@H](CC(C)C)NC(=O)[C@H](CCCN)NC(=O)[C@H](C(C)C)NC(=O)[C@H](Cc3ccc(-c4ccccc4)cc3)NC(=O)[C@H](CC(C)C)NC2=O)c1 [Compound 1073] ({CH2CO}-Y(Carboxymethyl)Y(Carboxymethyl)D[Phe(3-Me)]L[Bip]V[Orn][dL][Dab][Cha]VSCGKG[Aun]-OH; thioether N-14)
13,69.5,CC(C)C[C@H]1NC(=O)[C@H](CCCN)NC(=O)[C@H](C(C)C)NC(=O)[C@H](Cc2ccc(-c3ccccc3)cc2)NC(=O)[C@H](C(C)C)NC(=O)[C@H](Cc2c[nH]c3ccccc23)NC(=O)[C@H](CC(=O)O)NC(=O)[C@H](Cc2ccc(OCC(=O)O)cc2)NC(=O)[C@H](CN)NC(=O)CSC[C@@H](C(=O)N[C@@H](CN)C(=O)NCCCCCCCCCCC(=O)O)NC(=O)[C@H]([C@@H](C)O)NC(=O)[C@H](C(C)C)NC(=O)[C@H](CC2CCCCC2)NC(=O)[C@H](Cc2c[nH]cn2)NC1=O [Compound 1074] ({CH2CO}-[Dap]Y(Carboxymethyl)DWV[Bip]V[Orn][dL]H[Cha]VTC[Dap][Aun]-OH; thioether N-14)
